Results as given in patent US7488756B2, “Use of non-competitive and selective GluR5 antagonists as glutamate receptor modulating compounds” (Neurosearch A/S, priority 2001, dated 2009).

Assays:
[1] = target: T1, GluR5 receptor (Homo sapiens, UniProt P39086); assay: GluR5 binding assay: displacement of 3H-ATPA from membranes of HEK293 cells expressing GluR5
T1 construct: expressed in transfected cells; host or cells: HEK293
Procedure: The amount of radioactivity on the filters is determined by conventional liquid scintillation counting. Specific binding is total binding minus non-specific binding.

[2] = target: T1, GluR5 receptor; assay: Functional GluR5 assay: inhibition of domoate-induced increase in intracellular free calcium (FLIPR, Fluo-4); format: cell-based; settings: for IC50: HEK293 cells stably expressing un-edited GluR5, inhibition of 2 μM domoate-induced Cai elevation
Excerpt: (§1) In this example the inhibition of domoate-induced increase in intracellular free calcium concentration (Cai) is used as a measure for glutamate antagonist activity of test substances. Domoate is a close analog of kainite, and a potent glutamate agonist.
(§2) Human embryonic HEK293 cells stably expressing GluR5 receptors and GluR6 receptors, respectively, in their un-edited forms, are used.
In this example the activity of Compound A of the invention (5-carboxyl-2,4-di-benzamido-benzoic acid), obtained according to Ueda & Imai [Ueda M & Imai Y: Synthesis of polyamides by ring-opening polyaddition of bis-3,1-benzoxazin-4-ones with aliphatic diamines; J. Polym. Sci. 1979 17 (4) 1163-1173], is compared to the action of ATPA, a GluR5 receptor agonist, and CNQX, a GluR5 receptor antagonist that inhibits the activity of the agonist.
(§3) Fluorometric methods for measuring Cai have been developed [see e.g. Tsien et al., J. Cell. Biol. 1982 94 325]. The calcium-chelating fluorochromes (tetracarboxylic acids) are loaded into the cells as acetoxymethyl esters and subsequently released by unspecific intracellular esterase's. The free acids, which are impermeable to the cell membrane, are maintained in the cell for hours. The fluorescence spectrum (either EXmax, EMmax or both) is changed by the binding of calcium. The fluorescence is then directly proportional to the Cai.
(§4) The present method uses the fluorochromes Fluo-3 or Fluo-4 as the calcium-chelator. Fluo-3/Fluo-4 is virtually nonfluorescent without calcium but the calcium-Fluo-3/Fluo-4 complexes show a bright fluorescence (EMmax=526 nm) after excitation around 500 nm (EXmax=505 nm). This fluorescence spectrum is similar to the spectrum of fluorescein. Since excitation and emission is in the visible light region of the spectrum standard equipment without quarts optics may be used.
The HEK293 cells stably expressing GluR5 or GluR6 expressing are grown in Dulbecco's Modified Eagle Medium (DMEM) containing 10% foetal calf serum, in polystyrene culture flasks (175 cm^2) in a humidified atmosphere of 5% CO2 in air, at 37° C. Confluency of cells should be 80-90% on day of plating. GluR5 or GluR6 cells are rinsed with 10 ml of phosphate buffered saline (PBS), then added 1.5 ml of Trypsin-EDTA and left in the incubator for 5 min. After addition of 10 ml of growth media, cells are resuspended by trituration with a 10 ml pipette 15 times. […]
(§5) After the loading period, the loading media is aspirated and the cells are washed twice with 100 μl Na^+ free Ringer solution (NN: 10 mM HEPES, 140 mM Choline chloride, 5 mM KCl, 1 mM MgCl2, 10 mM CaCl2, pH 7.4) to remove extracellular dye. 100 μl NN is added to each well, and the fluorescence is measured in the FLIPR (Fluorescence Image Plate Reader). […]

[3] = target: T2, GluR6 receptors (Homo sapiens, UniProt Q13002); assay: Functional GluR6 assay: inhibition of domoate-induced increase in intracellular free calcium (FLIPR, Fluo-4); format: cell-based; settings: for IC50: HEK293 cells stably expressing un-edited GluR6, inhibition of 2 μM domoate-induced Cai elevation
T2 construct: expressed in transfected cells; host or cells: HEK293
T2 sequence (Q13002 32-908): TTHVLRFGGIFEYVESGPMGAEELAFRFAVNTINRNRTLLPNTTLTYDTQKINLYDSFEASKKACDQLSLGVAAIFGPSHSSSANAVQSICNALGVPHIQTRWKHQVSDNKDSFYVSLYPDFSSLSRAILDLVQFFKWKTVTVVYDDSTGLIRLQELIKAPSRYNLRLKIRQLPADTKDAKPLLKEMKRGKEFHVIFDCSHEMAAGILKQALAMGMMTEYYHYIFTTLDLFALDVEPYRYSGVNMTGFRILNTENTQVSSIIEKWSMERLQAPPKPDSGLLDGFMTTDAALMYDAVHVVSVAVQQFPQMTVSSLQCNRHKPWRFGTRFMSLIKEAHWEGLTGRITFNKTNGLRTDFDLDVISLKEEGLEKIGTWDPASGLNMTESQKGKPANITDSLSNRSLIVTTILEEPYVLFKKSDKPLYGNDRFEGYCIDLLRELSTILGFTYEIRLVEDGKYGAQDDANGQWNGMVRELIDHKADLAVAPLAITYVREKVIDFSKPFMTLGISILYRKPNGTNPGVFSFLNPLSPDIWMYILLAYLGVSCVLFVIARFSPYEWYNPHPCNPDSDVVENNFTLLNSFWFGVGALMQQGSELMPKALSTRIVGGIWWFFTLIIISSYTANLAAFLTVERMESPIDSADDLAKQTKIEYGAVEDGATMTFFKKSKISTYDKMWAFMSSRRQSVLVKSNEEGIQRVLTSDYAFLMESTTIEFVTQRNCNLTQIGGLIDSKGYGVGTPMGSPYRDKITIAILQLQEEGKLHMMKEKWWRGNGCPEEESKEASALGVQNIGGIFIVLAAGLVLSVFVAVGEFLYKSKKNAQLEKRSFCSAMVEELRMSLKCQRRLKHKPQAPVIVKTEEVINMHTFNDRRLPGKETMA
Excerpt: as §1, §2, §3, §4
The HEK293 cells stably expressing GluR5 or GluR6 expressing are grown in Dulbecco's Modified Eagle Medium (DMEM) containing 10% foetal calf serum, in polystyrene culture flasks (175 cm^2) in a humidified atmosphere of 5% CO2 in air, at 37° C. Confluency of cells should be 80-90% on day of plating. GluR5 or GluR6 cells are rinsed with 10 ml of phosphate buffered saline (PBS), then added 1.5 ml of Trypsin-EDTA and left in the incubator for 5 min. After addition of 10 ml of growth media, cells are resuspended by trituration with a 10 ml pipette 15 times.
The cells are seeded at a density of 0.5-1×10^6 cells/ml (100 μl/well) in black-walled, clear bottom, 96-well plates pre-treated with 0.001% PEI solution (75 μl/well for ≧30 min). Plated cells were allowed to proliferate for 24 h before loading with dye.
Fluo-4-AM (1 mg; Molecular Probes) is added 912 μl DMSO containing 25 mg/150 μl Pluoronic F-127 (Molecular Probes). […]
as §5
Reading intervals: preincubation—10 sec.×7 and 3 sec.×3 antagonist phase—3 sec.×17 and 10 sec.×12 […]

[4] = target: T1, GluR5 receptor; settings: Clarke et al., Nature 1997 389 599-603; read-out: Kd of binding to the GluR5 receptor; cited from earlier work
[5] = inhibition of specific binding of 3 nM 3H-ATPA, HEK293 GluR5 cell membranes, 60 minutes at 2° C., read-out: GluR5 Binding IC50

T1 sequence (P39086 31-918): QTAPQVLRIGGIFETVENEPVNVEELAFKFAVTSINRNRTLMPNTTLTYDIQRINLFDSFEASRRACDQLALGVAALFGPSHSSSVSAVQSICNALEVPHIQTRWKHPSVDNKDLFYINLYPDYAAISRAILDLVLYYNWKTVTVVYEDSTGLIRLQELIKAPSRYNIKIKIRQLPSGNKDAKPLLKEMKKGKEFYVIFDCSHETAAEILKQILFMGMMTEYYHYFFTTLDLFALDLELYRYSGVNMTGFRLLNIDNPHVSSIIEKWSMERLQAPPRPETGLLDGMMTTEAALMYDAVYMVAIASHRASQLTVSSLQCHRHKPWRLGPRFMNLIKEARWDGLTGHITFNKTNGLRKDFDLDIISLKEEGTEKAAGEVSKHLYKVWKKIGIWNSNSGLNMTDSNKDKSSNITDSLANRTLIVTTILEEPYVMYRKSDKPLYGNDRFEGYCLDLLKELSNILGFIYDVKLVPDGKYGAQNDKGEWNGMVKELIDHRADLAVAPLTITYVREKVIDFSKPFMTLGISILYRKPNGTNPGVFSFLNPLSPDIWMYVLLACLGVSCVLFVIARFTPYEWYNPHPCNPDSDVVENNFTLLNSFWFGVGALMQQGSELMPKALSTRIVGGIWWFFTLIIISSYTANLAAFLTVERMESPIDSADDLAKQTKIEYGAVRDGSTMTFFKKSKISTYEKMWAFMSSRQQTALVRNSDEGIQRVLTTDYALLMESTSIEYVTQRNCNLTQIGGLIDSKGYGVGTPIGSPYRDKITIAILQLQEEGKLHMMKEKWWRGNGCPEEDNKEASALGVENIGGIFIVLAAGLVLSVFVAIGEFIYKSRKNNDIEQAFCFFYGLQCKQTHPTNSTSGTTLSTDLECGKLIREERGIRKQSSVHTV

SMILES	IC50 [1, 5] [nM]	IC50 [2] [nM]	IC50 [3] [nM]	IC50 [1] [nM]	Kd [4] [nM]	Mode of action at the GluR5 receptor ([2]; conclusion from functional activity without binding (Table 1))	Selectivity GluR5 over GluR6 ([3]; conclusion from functional GluR5 and GluR6 data (Table 1))
N#Cc1cc2[nH]c(=O)c(=O)[nH]c2cc1[N+](=O)[O-] [CNQX]	720	3300	7600	–	–	–	–
CC(C)(C)c1onc(O)c1CC(N)C(=O)O (stereo not drawn) [ATPA, 2-amino-3-(3-hydroxy-5-tert-butylisoxazol-4-yl)propionic acid]	–	700	> 30000	24	4.3	–	–
O=C(Nc1cc(NC(=O)c2ccccc2)c(C(=O)O)cc1C(=O)O)c1ccccc1 [Compound A, 5-carboxyl-2,4-di-benzamido-benzoic acid]	> 10000	1900	> 30000	–	–	non-competitive antagonist of the GluR5 receptor	activity only at the GluR5 receptor, not at the GluR6 receptor
